From the supplement of paper PMC10307832

These cell lines were tested with C[C@@H](Oc1cc(-c2cnn(C3CCNCC3)c2)cnc1N)c1c(Cl)ccc(F)c1Cl [Crizotinib] + COc1cc2c(Oc3ccc(NC(=O)C4(C(=O)Nc5ccc(F)cc5)CC4)cc3F)ccnc2cc1OCCCN1CCOCC1 [Foretinib] (partner 0.25 µM) (assay: relative viability (nuclei count vs DMSO), 5 days (fraction); higher = more cells survive). Conditions: first compound 0.01 µM.
How it was run: (§1)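 Relative viability was taken as the ratio of nuclei in treated wells to nuclei in vehicle wells. Lung cancer cell lines in 1536-well plates received compounds by pin tool one day after seeding, either one drug alone or a fixed anchor-drug dose plus five library-drug doses (not always all listed) in √10 steps. Nuclei were counted on 4× images after 5 days of treatment, and values are medians of duplicate plates.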

Cell Line | relative viability
201T | 0.982
A549 | 0.919
A-427 | 0.943
BEN | 0.866
CAL-12T | 1.11
COR-L23 | 0.862
COR-L 105 | 1.07
Calu-6 | 0.855
ChaGo-K-1 | 0.838
EBC-1 | 0.0852
EKVX | 0.772
EMC-BAC-2 | 0.984
EPLC-272H | 0.669
H3255 | 0.849
HARA | 0.924
HCC-15 | 1.07
HCC-366 | 0.913
HCC-827 | 0.959
HOP-62 | 1.09

Cell Line | relative viability
IA-LM | 1.07
LCLC-103H | 0.75
NCI-H358 | 0.609
NCI-H520 | 0.757
NCI-H650 | 1.03
NCI-H661 | 0.941
NCI-H1299 | 1.03
NCI-H1563 | 0.93
NCI-H1623 | 0.736
NCI-H2009 | 1.21
NCI-H2023 | 0.745
NCI-H2228 | 0.872
NCI-H2342 | 1.01
SK-LU-1 | 0.822
SK-MES-1 | 0.875
SW 900 | 0.935
SW 1573 | 0.85
UMC-11 | 1.01

Same assay, conditions: first compound 0.03162 µM

Cell Line | relative viability
201T | 1.12
A549 | 1.05
A-427 | 1.04
ABC-1 | 1.02
BEN | 0.732
CAL-12T | 1.17
COR-L23 | 1
COR-L 105 | 1.02
Calu-6 | 0.938
EBC-1 | 0.1
EKVX | 0.752
EMC-BAC-2 | 0.952
EPLC-272H | 0.627
H3255 | 0.866
HARA | 0.705
HCC-15 | 1
HCC-78 | 0.685
HCC-366 | 0.841
HCC-827 | 0.967

Cell Line | relative viability
HOP-62 | 1.09
IA-LM | 1.05
LCLC-103H | 0.732
NCI-H358 | 0.835
NCI-H441 | 0.958
NCI-H520 | 0.827
NCI-H650 | 0.998
NCI-H1299 | 1.07
NCI-H1623 | 0.92
NCI-H1650 | 1.1
NCI-H2009 | 1.17
NCI-H2023 | 0.799
NCI-H2228 | 0.997
NCI-H2342 | 1.04
SK-LU-1 | 0.778
SK-MES-1 | 0.919
SW 900 | 0.877
SW 1573 | 0.762
UMC-11 | 1.04

Same assay, conditions: first compound 0.1 µM

Cell Line | relative viability
201T | 1.09
A549 | 0.908
A-427 | 1.04
ABC-1 | 1.05
BEN | 0.644
COR-L23 | 0.89
COR-L 105 | 1.12
Calu-6 | 0.86
ChaGo-K-1 | 0.939
EBC-1 | 0.107
EKVX | 0.717
EMC-BAC-2 | 1.02
EPLC-272H | 0.669
H3255 | 1.11
HARA | 0.858
HCC-15 | 1.03
HCC-78 | 0.566
HCC-366 | 0.893
HCC-827 | 0.937
HOP-62 | 1.07

Cell Line | relative viability
IA-LM | 1.18
LCLC-103H | 0.727
NCI-H358 | 0.649
NCI-H441 | 0.931
NCI-H520 | 0.804
NCI-H650 | 1.03
NCI-H661 | 1.01
NCI-H1299 | 1.04
NCI-H1563 | 0.888
NCI-H1623 | 0.829
NCI-H1650 | 0.949
NCI-H2009 | 1.13
NCI-H2023 | 0.787
NCI-H2228 | 0.699
NCI-H2342 | 1.06
SK-LU-1 | 0.787
SK-MES-1 | 0.941
SW 900 | 0.823
SW 1573 | 0.905
UMC-11 | 1.07

Same assay, conditions: first compound 0.3162 µM

Cell Line | relative viability
201T | 1.13
A549 | 0.853
ABC-1 | 1.31
BEN | 0.332
COR-L23 | 1.06
COR-L 105 | 0.797
Calu-6 | 0.947
EBC-1 | 0.112
EKVX | 0.444
EMC-BAC-2 | 1.04
EPLC-272H | 0.636
H3255 | 0.581
HCC-78 | 0.592
HCC-827 | 0.971
HOP-62 | 1.07
IA-LM | 1.21
LCLC-103H | 0.865

Cell Line | relative viability
NCI-H358 | 0.624
NCI-H650 | 0.977
NCI-H661 | 1.08
NCI-H1299 | 1.08
NCI-H1563 | 0.904
NCI-H1623 | 0.873
NCI-H1650 | 1.07
NCI-H2009 | 1.19
NCI-H2023 | 0.848
NCI-H2228 | 0.81
NCI-H2342 | 0.978
SK-LU-1 | 0.902
SK-MES-1 | 0.798
SW 900 | 1.01
SW 1573 | 0.77
UMC-11 | 1.04

Same assay, conditions: first compound 1 µM

Cell Line | relative viability
201T | 1.14
A549 | 1.02
A-427 | 1.04
ABC-1 | 1.09
BEN | 0.633
CAL-12T | 1.24
COR-L23 | 1.07
COR-L 105 | 1.15
Calu-6 | 0.927
ChaGo-K-1 | 0.939
EBC-1 | 0.104
EKVX | 0.991
EMC-BAC-2 | 1.07
EPLC-272H | 0.679
H3255 | 0.877
HARA | 0.877
HCC-15 | 0.987
HCC-78 | 0.599
HCC-366 | 0.95
HCC-827 | 1.05
HOP-62 | 1.17

Cell Line | relative viability
IA-LM | 1.1
LCLC-103H | 0.711
NCI-H358 | 0.713
NCI-H441 | 0.825
NCI-H520 | 0.538
NCI-H650 | 0.99
NCI-H661 | 0.98
NCI-H1299 | 1.06
NCI-H1563 | 1.05
NCI-H1623 | 0.801
NCI-H1650 | 1.43
NCI-H2009 | 1.23
NCI-H2023 | 0.939
NCI-H2228 | 0.434
NCI-H2342 | 1.14
SK-LU-1 | 0.848
SK-MES-1 | 0.843
SW 900 | 0.742
SW 1573 | 0.98
UMC-11 | 1.02

These cell lines were tested with C[C@@H](Oc1cc(-c2cnn(C3CCNCC3)c2)cnc1N)c1c(Cl)ccc(F)c1Cl [Crizotinib] + CS(=O)(=O)CCNCc1ccc(-c2ccc3ncnc(Nc4ccc(OCc5cccc(F)c5)c(Cl)c4)c3c2)o1 [Lapatinib] (partner 2 µM) in the same assay as above. Conditions: first compound 0.01 µM.
How it was run: as §1

Cell Line | relative viability
201T | 0.891
A549 | 0.996
A-427 | 0.852
ABC-1 | 1.2
BEN | 0.697
CAL-12T | 0.664
COR-L23 | 0.835
COR-L 105 | 0.345
Calu-6 | 1.07
EBC-1 | 0.213
EKVX | 0.218
EMC-BAC-2 | 0.852
EPLC-272H | 0.861
H3255 | 0.254
HARA | 0.662
HCC-15 | 0.831
HCC-44 | 0.96
HCC-78 | 0.77

Cell Line | relative viability
HCC-366 | 1
HCC-827 | 0.153
HOP-62 | 0.796
IA-LM | 0.861
NCI-H358 | 0.392
NCI-H520 | 0.75
NCI-H650 | 0.833
NCI-H661 | 0.551
NCI-H1299 | 0.966
NCI-H1563 | 0.88
NCI-H1650 | 0.699
NCI-H1792 | 0.827
NCI-H2009 | 0.845
NCI-H2023 | 0.864
NCI-H2228 | 0.814
SK-LU-1 | 0.833
SK-MES-1 | 0.415
SW 1573 | 1.13

Same assay, conditions: first compound 0.03162 µM

Cell Line | relative viability
A549 | 1.06
A-427 | 1.07
ABC-1 | 1.1
BEN | 0.69
CAL-12T | 0.771
COR-L23 | 1.1
COR-L 105 | 0.38
Calu-6 | 1.1
EBC-1 | 0.223
EKVX | 0.191
EMC-BAC-2 | 0.897
EPLC-272H | 0.996
H3255 | 0.267
HARA | 0.699
HCC-15 | 0.881
HCC-44 | 1.02
HCC-78 | 0.828
HCC-366 | 1.06

Cell Line | relative viability
HCC-827 | 0.211
HOP-62 | 1.15
IA-LM | 0.954
NCI-H358 | 0.447
NCI-H520 | 0.86
NCI-H650 | 0.788
NCI-H661 | 0.461
NCI-H1299 | 0.942
NCI-H1563 | 0.962
NCI-H1650 | 0.819
NCI-H1792 | 0.918
NCI-H2009 | 0.984
NCI-H2023 | 0.884
NCI-H2228 | 0.827
SK-LU-1 | 0.953
SK-MES-1 | 0.414
SW 1573 | 1.03
UMC-11 | 0.975

Same assay, conditions: first compound 0.1 µM

Cell Line | relative viability
201T | 1.03
A549 | 1.03
A-427 | 1.09
ABC-1 | 1.16
BEN | 0.642
CAL-12T | 0.658
COR-L23 | 0.983
COR-L 105 | 0.373
Calu-6 | 1.07
EBC-1 | 0.197
EKVX | 0.175
EMC-BAC-2 | 0.911
EPLC-272H | 0.945
H3255 | 0.234
HARA | 0.636
HCC-15 | 0.886
HCC-44 | 1.14
HCC-78 | 0.697
HCC-366 | 1.05

Cell Line | relative viability
HCC-827 | 0.178
HOP-62 | 1.01
IA-LM | 0.738
NCI-H358 | 0.445
NCI-H520 | 0.827
NCI-H650 | 0.909
NCI-H661 | 0.43
NCI-H1299 | 0.896
NCI-H1563 | 0.936
NCI-H1650 | 0.828
NCI-H1792 | 0.958
NCI-H2009 | 0.956
NCI-H2023 | 0.71
NCI-H2228 | 1.06
SK-LU-1 | 0.859
SK-MES-1 | 0.51
SW 1573 | 0.956
UMC-11 | 1.02

Same assay, conditions: first compound 0.3162 µM

Cell Line | relative viability
201T | 1.05
ABC-1 | 1.12
BEN | 0.719
COR-L23 | 0.985
COR-L 105 | 0.32
Calu-6 | 1.05
EBC-1 | 0.206
EKVX | 0.186
EMC-BAC-2 | 0.749
EPLC-272H | 0.9
H3255 | 0.238
HARA | 0.824
